Assays:
Format in all cases: in vivo
[1] = system: green peach aphids (Myzus persicae); assay: LC50 biological efficacy assay on green peach aphids, aerosolized dilutions on infested radish leaves
Procedure: Biological efficacy assays utilizing terpendoles were conducted on green peach aphids (Myzus persicae). Specifically, terpendole A, terpendole C, terpendole J, terpendole K, terpendole N, terpendole O and terpendole P were each separately applied in serial dilutions to determine the concentration at which 50% control of green peach aphids occurred over a period of 24-48 hours (“LC50”). Radish leaves infested with green peach aphids were treated, top and bottom, with a total of 500 μl of an aerosolized terpendole dilution. Treated, aphid infested leaves were held in greenhouse conditions and evaluated for efficacy at 24 and 48 h.

[2] = system: birdcherry-oat aphid (Rhopalosiphum padi); assay: whole plant or invertebrate
Procedure: (§1) A bioefficacy assay utilizing terpendole C was conducted on the lepidopterans: diamondback moth (Plutella xylostella) and common cutworm (Spodoptera litura): the whitefly, tobacco whitefly (Bemisia tabaci) the thrips, western flower thrips (Frankliniella occidentalis); the planthopper, brown rice planthopper (Nilaparvata lugens); the aphids, cotton aphid (Aphis gossypii), foxglove aphid (Aulacorthum solani), cabbage aphid (Brevicoryne brassicae), birdcherry-oat aphid (Rhopalosiphum padi), green peach aphid (Myzus persicae); and the mite, two-spotted spider mite (Tetranychus urticae). Specifically, terpendole C was diluted with acetone and 5% Tween® 20 and finally diluted with water to prepare spray solutions. Terpendole C was then applied to plants as a foliar spray at 500, 200, 50, 12.5, 3.1, 1, 0.8 and/or 0.2 ppm and/or as a soil treatment at 2,500, 1,000, 250, 63, 16, 4 and/or 1 ppm. Pests were then placed on the plant or in the soil. Further, mortality and appetite suppression were recorded at 6, 7 and/or 13 days after treatment (“DAT”) and are reported in Tables 2 and 3, below, respectively.

[3] = system: brown rice planthopper (Nilaparvata lugens); assay: whole plant or invertebrate; settings: 3rd-4th instar, 6 DAT
Procedure: as §1

[4] = system: cabbage aphid (Brevicoryne brassicae); assay: whole plant or invertebrate
Procedure: as §1

[5] = system: common cutworm (Spodoptera litura); assay: whole plant or invertebrate
Procedure: as §1

[6] = system: cotton aphid (Aphis gossypii); assay: whole plant or invertebrate
Procedure: as §1

[7] = system: diamondback moth (Plutella xylostella); assay: whole plant or invertebrate
Procedure: as §1

[8] = system: foxglove aphid (Aulacorthum solani); assay: whole plant or invertebrate; settings: Kidney Bean, Adult, 6 DAT
Procedure: as §1

[9] = either by killing the larvae or suppressing the appetite of the larvae

## CC(C)=C[C@H]1O[C@H]2[C@H]3O[C@@]34[C@H](CC[C@@]3(C)[C@@]4(O)CC[C@H]4Cc5c([nH]c6ccccc56)[C@@]43C)O[C@@H]2C(C)(C)O1 [Terpendole C, terpendole C]
[1]; concentration for 50% control over 24-48 hours, infested radish leaves, 500 μl aerosolized dilution
  LC50: 20 ppm
[1]; summary of Table 1
  control of green peach aphids (in words): effectively controlled
[2]; Rhopalosiphum padi, 144 h, 0.8 ppm, Wheat, All stages, 6 DAT, read-out: Mortality score
  mortality at 0.8 ppm: < 29%
[2]; Rhopalosiphum padi, 144 h, 3.1 ppm, Wheat, All stages, 6 DAT, read-out: Mortality score
  mortality at 3.1 ppm: < 29%
[2]; Rhopalosiphum padi, 144 h, 12.5 ppm, Wheat, All stages, 6 DAT, read-out: Mortality score (converted)
  mortality at 12.5 ppm: 50%
[2]; Rhopalosiphum padi, 144 h, 50 ppm, Wheat, All stages, 6 DAT, read-out: Mortality score (converted)
  mortality at 50 ppm: 75%
[2]; Rhopalosiphum padi, 144 h, 200 ppm, Wheat, All stages, 6 DAT, read-out: Mortality score (converted)
  mortality at 200 ppm: 90%
[2]; summary of Table 2
  control of birdcherry-oat aphids (in words): effectively controlled
[3]; 12.5 ppm
  Mortality score: 0-1
[3]; Nilaparvata lugens, 144 h, 0.2 ppm, read-out: Mortality score
  mortality at 0.2 ppm: < 29%
[3]; Nilaparvata lugens, 144 h, 0.8 ppm, read-out: Mortality score
  mortality at 0.8 ppm: < 29%
[3]; Nilaparvata lugens, 144 h, 3.1 ppm, read-out: Mortality score
  mortality at 3.1 ppm: < 29%
[3]; Nilaparvata lugens, 144 h, 50 ppm, read-out: Mortality score
  mortality at 50 ppm: < 29%
[3]; Nilaparvata lugens, 144 h, 200 ppm, read-out: Mortality score
  mortality at 200 ppm: < 29%
[3]; Nilaparvata lugens, 144 h, 500 ppm, read-out: Mortality score
  mortality at 500 ppm: < 29%
[4]; Brevicoryne brassicae, 144 h, 0.8 ppm, Cabbage, All stages, 6 DAT, read-out: Mortality score (converted)
  mortality at 0.8 ppm: 75%
[4]; Brevicoryne brassicae, 144 h, 3.1 ppm, Cabbage, All stages, 6 DAT, read-out: Mortality score (converted)
  mortality at 3.1 ppm: 75%
[4]; Brevicoryne brassicae, 144 h, 12.5 ppm, Cabbage, All stages, 6 DAT, read-out: Mortality score (converted)
  mortality at 12.5 ppm: 100%
[4]; Brevicoryne brassicae, 144 h, 50 ppm, Cabbage, All stages, 6 DAT, read-out: Mortality score (converted)
  mortality at 50 ppm: 100%
[4]; Brevicoryne brassicae, 144 h, 200 ppm, Cabbage, All stages, 6 DAT, read-out: Mortality score (converted)
  mortality at 200 ppm: 100%
[4]; summary of Table 2
  control of cabbage aphids (in words): effectively controlled
[5]; 12.5 ppm, Cabbage, 4th instar, 6 DAT
  Appetite suppression score: 4 (4 = 70-100% suppression)
[5]; 50 ppm, Cabbage, 4th instar, 6 DAT
  Appetite suppression score: 4 (4 = 70-100% suppression)
[5]; 200 ppm, Cabbage, 4th instar, 6 DAT
  Appetite suppression score: 4 (4 = 70-100% suppression)
[5]; 500 ppm, Cabbage, 4th instar, 6 DAT
  Appetite suppression score: 4 (4 = 70-100% suppression)
[5]; Spodoptera litura, 144 h, 12.5 ppm, Cabbage, 4th instar, 6 DAT, read-out: Mortality score
  mortality at 12.5 ppm: < 29%
[5]; Spodoptera litura, 144 h, 50 ppm, Cabbage, 4th instar, 6 DAT, read-out: Mortality score
  mortality at 50 ppm: < 29%
[5]; Spodoptera litura, 144 h, 200 ppm, Cabbage, 4th instar, 6 DAT, read-out: Mortality score
  mortality at 200 ppm: < 29%
[5]; Spodoptera litura, 144 h, 500 ppm, Cabbage, 4th instar, 6 DAT, read-out: Mortality score
  mortality at 500 ppm: < 29%
[5]; [9]
  control of common cutworm (in words): effectively controlled
[6]; 12.5 ppm, Cucumber, All stages, 6 DAT
  Mortality score: 3-4
[6]; Aphis gossypii, 144 h, 0.2 ppm, Cucumber, All stages, 6 DAT, read-out: Mortality score
  mortality at 0.2 ppm: < 29%
[6]; Aphis gossypii, 144 h, 0.8 ppm, Cucumber, All stages, 6 DAT, read-out: Mortality score (converted)
  mortality at 0.8 ppm: 75%
[6]; Aphis gossypii, 144 h, 3.1 ppm, Cucumber, All stages, 6 DAT, read-out: Mortality score (converted)
  mortality at 3.1 ppm: 90%
[6]; Aphis gossypii, 144 h, 50 ppm, Cucumber, All stages, 6 DAT, read-out: Mortality score (converted)
  mortality at 50 ppm: 90%
[6]; Aphis gossypii, 144 h, 200 ppm, Cucumber, All stages, 6 DAT, read-out: Mortality score (converted)
  mortality at 200 ppm: 100%
[6]; Aphis gossypii, 144 h, 500 ppm, Cucumber, All stages, 6 DAT, read-out: Mortality score (converted)
  mortality at 500 ppm: 100%
[6]; summary of Table 2
  control of cotton aphids (in words): effectively controlled
[7]; 12.5 ppm, Cabbage, 3rd instar, 6 DAT
  Appetite suppression score: 0
[7]; 50 ppm, Cabbage, 3rd instar, 6 DAT
  Appetite suppression score: 0
[7]; 200 ppm, Cabbage, 3rd instar, 6 DAT
  Appetite suppression score: 3 (3 = about 60% suppression)
[7]; 500 ppm, Cabbage, 3rd instar, 6 DAT
  Appetite suppression score: 4 (4 = 70-100% suppression)
[7]; Plutella xylostella, 144 h, 12.5 ppm, Cabbage, 3rd instar, 6 DAT, read-out: Mortality score (converted)
  mortality at 12.5 ppm: 50%
[7]; Plutella xylostella, 144 h, 50 ppm, Cabbage, 3rd instar, 6 DAT, read-out: Mortality score (converted)
  mortality at 50 ppm: 50%
[7]; Plutella xylostella, 144 h, 200 ppm, Cabbage, 3rd instar, 6 DAT, read-out: Mortality score (converted)
  mortality at 200 ppm: 90%
[7]; Plutella xylostella, 144 h, 500 ppm, Cabbage, 3rd instar, 6 DAT, read-out: Mortality score (converted)
  mortality at 500 ppm: 100%
[7]; [9]
  control of diamondback moth (in words): effectively controlled
[8]; 12.5 ppm
  Appetite suppression score: 0
[8]; 50 ppm
  Appetite suppression score: 0

— US10729135B2, “Methods of controlling pests using terpendoles” (priority 2017, dated 2020)
